Experimental data published in patent publication US10251395B2, “Substituted furano-/thienocycloalkylamino-2-pyrimidine derivatives and use thereof for controlling undesired plant growth” (Bayer CropScience Aktiengesellschaft, priority 2015, dated 2019).

Key:
Type in all cases: in vivo
Amaranthus retroflexus [1] = test: Pre-emergence herbicidal effect; conditions: scored visually after 3 weeks
From the text: (§1) Seeds of monocotyledonous and dicotyledonous weed plants and crop plants are laid out in wood-fiber pots in sandy loam and covered with soil. The compounds of the invention, formulated in the form of wettable powders (WP) or as emulsion concentrates (EC), are then applied to the surface of the covering soil as aqueous suspension or emulsion at a water application rate equating to 600 to 800 L/ha with addition of 0.2% wetting agent.
(§2) After the treatment, the pots are placed in a greenhouse and kept under good growth conditions for the trial plants. The damage to the test plants is scored visually after a test period of 3 weeks by comparison with untreated controls (herbicidal activity in percent (%): 100% activity=the plants have died, 0% activity=like control plants).
(§3) • ABUTH: Abutilon theophrasti ALOMY: Alopecurus myosuroides • AMARE: Amaranthus retroflexus AVEFA: Avena fatua • CYPES: Cyperus esculentus ECHCG: Echinochloa crus-galli • LOLMU: Lolium multiflorum MATIN: Matricaria inodora • PHBPU: Ipomoea purpurea POLCO: Polygonum convolvulus • SETVI: Setaria viridis STEME: Stellaria media • VERPE: Veronica persica VIOTR: Viola tricolor

Lolium multiflorum = test: Pre-emergence herbicidal effect; conditions: Dosage 320 g/ha, scored visually after 3 weeks
From the text: as §1, §2, §3

Matricaria inodora = test: Pre-emergence herbicidal effect; conditions: scored visually after 3 weeks
From the text: as §1, §2, §3

Polygonum convolvulus = test: Pre-emergence herbicidal effect; conditions: scored visually after 3 weeks
From the text: as §1, §2, §3

Setaria viridis [2] = test: Pre-emergence herbicidal effect; conditions: scored visually after 3 weeks
From the text: as §1, §2, §3

Stellaria media [3] = test: Pre-emergence herbicidal effect; conditions: scored visually after 3 weeks
From the text: as §1, §2, §3

Veronica persica [4] = test: Pre-emergence herbicidal effect; conditions: scored visually after 3 weeks
From the text: as §1, §2, §3

Viola tricolor [5] = test: Pre-emergence herbicidal effect; conditions: scored visually after 3 weeks
From the text: as §1, §2, §3

Abutilon theophrasti = test: Post-emergence herbicidal effect; conditions: assessed visually after about 3 weeks vs untreated controls
From the text: (§4) • ABUTH: Abutilon theophrasti ALOMY: Alopecurus myosuroides • AMARE: Amaranthus retroflexus AVEFA: Avena fatua • CYPES: Cyperus esculentus ECHCG: Echinochloa crus-galli • LOLMU: Lolium multiflorum MATIN: Matricaria inodora • PHBPU: Ipomoea purpurea POLCO: Polygonum convolvulus • SETVI: Setaria viridis STEME: Stellaria media • VERPE: Veronica persica VIOTR: Viola tricolor Seeds of monocotyledonous and dicotyledonous weed and crop plants are laid out in sandy loam in wood-fiber pots, covered with soil and cultivated in a greenhouse under good growth conditions. 2 to 3 weeks after sowing, the test plants are treated at the one-leaf stage. The compounds of the invention, formulated in the form of wettable powders (WP) or as emulsion concentrates (EC), are then sprayed onto the green parts of the plants as aqueous suspension or emulsion at a water application rate equating to 600 to 800 L/ha with addition of 0.2% wetting agent. After the test plants have been left to stand in the greenhouse under optimal growth conditions for about 3 weeks, the action of the preparations is assessed visually in comparison to untreated controls (herbicidal action in percent (%): 100% activity=the plants have died, 0% activity=like control plants).

Setaria viridis [6] = test: Post-emergence herbicidal effect; conditions: assessed visually after about 3 weeks vs untreated controls
From the text: as §4

Veronica persica [7] = test: Post-emergence herbicidal effect; conditions: assessed visually after about 3 weeks vs untreated controls
From the text: as §4

Viola tricolor [8] = test: Post-emergence herbicidal effect; conditions: assessed visually after about 3 weeks vs untreated controls
From the text: as §4

Alopecurus myosuroides = test: Pre-emergence herbicidal effect; conditions: scored visually after 3 weeks
From the text: as §1, §2, §3

Echinochloa crus-galli [9] = test: Pre-emergence herbicidal effect; conditions: scored visually after 3 weeks
From the text: as §1, §2, §3

Amaranthus retroflexus [10] = test: Post-emergence herbicidal effect; conditions: assessed visually after about 3 weeks vs untreated controls
From the text: as §4

Echinochloa crus-galli [11] = test: Post-emergence herbicidal effect; conditions: 320 g/ha, assessed visually after about 3 weeks vs untreated controls
From the text: as §4

Ipomoea purpurea = test: Post-emergence herbicidal effect; conditions: assessed visually after about 3 weeks vs untreated controls
From the text: as §4

Stellaria media [12] = test: Post-emergence herbicidal effect; conditions: assessed visually after about 3 weeks vs untreated controls
From the text: as §4

SMILES	AMARE pre-emergence efficacy (herbicidal activity) (Amaranthus retroflexus [1]; Dosage 320 g/ha) [%]	LOLMU pre-emergence efficacy (herbicidal activity) (Lolium multiflorum) [%]	MATIN pre-emergence efficacy (herbicidal activity) (Matricaria inodora; Dosage 80 g/ha) [%]	MATIN pre-emergence efficacy (herbicidal activity) (Matricaria inodora; Dosage 320 g/ha) [%]	POLCO pre-emergence efficacy (herbicidal activity) (Polygonum convolvulus; Dosage 320 g/ha) [%]	SETVI pre-emergence efficacy (herbicidal activity) (Setaria viridis [2]; Dosage 320 g/ha) [%]	STEME pre-emergence efficacy (herbicidal activity) (Stellaria media [3]; Dosage 80 g/ha) [%]	STEME pre-emergence efficacy (herbicidal activity) (Stellaria media [3]; Dosage 320 g/ha) [%]	VERPE pre-emergence efficacy (herbicidal activity) (Veronica persica [4]; Dosage 80 g/ha) [%]	VERPE pre-emergence efficacy (herbicidal activity) (Veronica persica [4]; Dosage 320 g/ha) [%]	VIOTR pre-emergence efficacy (herbicidal activity) (Viola tricolor [5]; Dosage 80 g/ha) [%]	VIOTR pre-emergence efficacy (herbicidal activity) (Viola tricolor [5]; Dosage 320 g/ha) [%]	post-emergence efficacy ABUTH (Abutilon theophrasti; 80 g/ha) [%]	post-emergence efficacy SETVI (Setaria viridis [6]; 320 g/ha) [%]	post-emergence efficacy VERPE (Veronica persica [7]; 320 g/ha) [%]	post-emergence efficacy VIOTR (Viola tricolor [8]; 80 g/ha) [%]	post-emergence efficacy VIOTR (Viola tricolor [8]; 320 g/ha) [%]	ALOMY pre-emergence efficacy (herbicidal activity) (Alopecurus myosuroides; Dosage 320 g/ha) [%]	ECHCG pre-emergence efficacy (herbicidal activity) (Echinochloa crus-galli [9]; Dosage 320 g/ha) [%]	post-emergence efficacy STEME (Stellaria media [12]; 320 g/ha) [%]	also measured
CN=C(C)c1cnc(NC2CCCc3sc(C)cc32)nc1N (centres unmarked) [compound 352]	100	60	90	90	60	100	100	100	100	100	80	100	80	80	100	80	90				POLCO pre-emergence efficacy (herbicidal activity) (Polygonum convolvulus; Dosage 80 g/ha): 60%; post-emergence efficacy ABUTH (Abutilon theophrasti; 320 g/ha): 90%
Nc1nc(NC2CCc3cc(Cl)sc32)ncc1C(F)(F)F (racemic) [compound 48]	100		80	90		80		100	100	100	100	100		90	80	80	90	80	100	90	ECHCG pre-emergence efficacy (herbicidal activity) (Echinochloa crus-galli [9]; Dosage 80 g/ha): 100%; post-emergence efficacy AMARE (Amaranthus retroflexus [10]; 80 g/ha): 80%; post-emergence efficacy AMARE (Amaranthus retroflexus [10]; 320 g/ha): 90%; post-emergence efficacy ECHCG (Echinochloa crus-galli [11]): 100%; post-emergence efficacy PHBPU (Ipomoea purpurea; 320 g/ha): 80%; post-emergence efficacy SETVI (Setaria viridis [6]; 80 g/ha): 80%
CC(=O)c1c(N)nc(NC2CCCc3sc(C)cc32)nc1C(F)(F)F (racemic) [compound 268]	100			90		90	90	100	100	100	80	90		80	80	80	80	90		100	ALOMY pre-emergence efficacy (herbicidal activity) (Alopecurus myosuroides; Dosage 80 g/ha): 80%; AMARE pre-emergence efficacy (herbicidal activity) (Amaranthus retroflexus [1]; Dosage 80 g/ha): 100%; SETVI pre-emergence efficacy (herbicidal activity) (Setaria viridis [2]; Dosage 80 g/ha): 90%; post-emergence efficacy STEME (Stellaria media [12]; 80 g/ha): 100%; post-emergence efficacy VERPE (Veronica persica [7]; 80 g/ha): 80%
C=C(c1cnc(NC2CCCc3sc(C)cc32)nc1N)C(F)(F)F (racemic) [compound 275]	100	60	90	100	70	100	100	100	100	100	100	100	80	80	90	70	90	80	100	90	ALOMY pre-emergence efficacy (herbicidal activity) (Alopecurus myosuroides; Dosage 80 g/ha): 80%; AMARE pre-emergence efficacy (herbicidal activity) (Amaranthus retroflexus [1]; Dosage 80 g/ha): 70%; SETVI pre-emergence efficacy (herbicidal activity) (Setaria viridis [2]; Dosage 80 g/ha): 90%; post-emergence efficacy ABUTH (Abutilon theophrasti; 320 g/ha): 90%; post-emergence efficacy PHBPU (Ipomoea purpurea; 320 g/ha): 70%; post-emergence efficacy SETVI (Setaria viridis [6]; 80 g/ha): 70%; post-emergence efficacy STEME (Stellaria media [12]; 80 g/ha): 90%
Cc1cc2c(s1)CCCC2Nc1ncc(-c2cccc(C(F)(F)F)c2)c(N)n1 (racemic) [compound 294]		100	90	100	80		100	100	100	100	80	90	60		90			100			ALOMY pre-emergence efficacy (herbicidal activity) (Alopecurus myosuroides; Dosage 80 g/ha): 70%; POLCO pre-emergence efficacy (herbicidal activity) (Polygonum convolvulus; Dosage 80 g/ha): 70%; post-emergence efficacy ABUTH (Abutilon theophrasti; 320 g/ha): 70%; post-emergence efficacy AMARE (Amaranthus retroflexus [10]; 80 g/ha): 70%; post-emergence efficacy AMARE (Amaranthus retroflexus [10]; 320 g/ha): 70%
CS(=O)(=O)c1cnc(NC2CCc3cc(Cl)sc32)nc1N (racemic) [compound 50]	100	80	90	90	100	100	100	100	100	100	80	100			90	90	100		100	100	AMARE pre-emergence efficacy (herbicidal activity) (Amaranthus retroflexus [1]; Dosage 80 g/ha): 100%; ECHCG pre-emergence efficacy (herbicidal activity) (Echinochloa crus-galli [9]; Dosage 80 g/ha): 90%; post-emergence efficacy AMARE (Amaranthus retroflexus [10]; 80 g/ha): 80%; post-emergence efficacy AMARE (Amaranthus retroflexus [10]; 320 g/ha): 90%; post-emergence efficacy VERPE (Veronica persica [7]; 80 g/ha): 80%
CCOC(=O)c1cnc(NC2CCCc3sc(C)cc32)nc1N (racemic) [compound 293]	100	60	70	100		100	100	100		100		100			90	70	90	70	80	100	post-emergence efficacy PHBPU (Ipomoea purpurea; 80 g/ha): 80%; post-emergence efficacy PHBPU (Ipomoea purpurea; 320 g/ha): 90%; post-emergence efficacy STEME (Stellaria media [12]; 80 g/ha): 80%
